These molecules were tested against T1, Full-length, GST-tagged, human CaMKIIδ (Homo sapiens, UniProt Q13557) (assay: CaMKIIδ binding assay (TR-FRET with BODIPY-labeled probe ligand)). Conditions: CaMKIIδ binding assay, results of Table 2.
T1 construct: Full-Length, Glutathione-S-Transferase(GST)-Tagged, Human CaMKIIδ was purchased from Carna Biosciences; purchased Carna Biosciences 02-111
Procedure, shortened: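 Compounds were tested as 4-fold, eight-point series for 1 hr at room temperature, and IC50 was obtained by logistic fitting against a 3 μM parent-compound control. Signal came from displacement of a 300 nM BODIPY ligand from 0.5 nM GST-CaMKIIδ, detected via Tb-anti-GST in calmodulin/Ca2+ (pH 7.6).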

T1 sequence (Q13557 1-478 isoform Q13557-12): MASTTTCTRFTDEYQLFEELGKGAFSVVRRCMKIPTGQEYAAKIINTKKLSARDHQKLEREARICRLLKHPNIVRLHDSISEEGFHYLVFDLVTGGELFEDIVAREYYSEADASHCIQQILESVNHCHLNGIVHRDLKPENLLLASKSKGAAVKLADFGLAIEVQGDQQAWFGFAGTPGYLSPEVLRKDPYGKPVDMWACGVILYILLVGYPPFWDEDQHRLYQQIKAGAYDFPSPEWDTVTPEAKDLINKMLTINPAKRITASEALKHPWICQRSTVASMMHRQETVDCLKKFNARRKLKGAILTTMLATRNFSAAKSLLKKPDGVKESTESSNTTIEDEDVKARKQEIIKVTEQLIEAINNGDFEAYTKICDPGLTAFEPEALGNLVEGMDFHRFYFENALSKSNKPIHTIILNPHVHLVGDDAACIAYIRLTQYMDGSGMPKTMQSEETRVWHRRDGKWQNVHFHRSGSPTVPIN

SMILES | IC50
C[C@@H](Cn1cnnn1)Oc1cc(-c2cnc(Nc3cn(C4CCN(C(=O)OC(C)(C)C)CC4)nc3C(F)(F)F)nc2)ccc1Cl [Example 482, tert-butyl (S)-4-(4-((5-(3-((1-(1H-tetrazol-1-yl)propan-2-yl)oxy)-4-chlorophenyl)pyrimidin-2-yl)amino)-3-(trifluoromethyl)-1H-pyrazol-1-yl)piperidine-1-carboxylate] | 10 to 100 nM
C[C@@H](Cn1cnnn1)Oc1cc(-c2cnc(Nc3cn(C4CCN(CC5CC5)CC4)nc3C(F)(F)F)nc2)ccc1Cl [Example 549, (S)-5-(3-((1-(1H-tetrazol-1-yl)propan-2-yl)oxy)-4-chlorophenyl)-N-(1-(1-(cyclopropylmethyl)piperidin-4-yl)-3-(trifluoromethyl)-1H-pyrazol-4-yl)pyrimidin-2-amine] | < 10 nM
C[C@@H](Cn1cnnn1)Oc1cc(-c2cnc(Nc3cc(N4CCC(N5CCOCC5)CC4)ncc3OC(F)(F)F)nc2)ccc1C#N [Example 543, (S)-2-((1-(1H-tetrazol-1-yl)propan-2-yl)oxy)-4-(2-((2-(4-morpholinopiperidin-1-yl)-5-(trifluoromethoxy)pyridin-4-yl)amino)pyrimidin-5-yl)benzonitrile] | < 10 nM
C[C@@H](Cn1cnnn1)Oc1cc(-c2cnc(Nc3cn(C4CCN(Cc5cnn(C)c5)CC4)nc3C(F)(F)F)nc2)ccc1Cl [Example 567, (S)-5-(3-((1-(1H-tetrazol-1-yl)propan-2-yl)oxy)-4-chlorophenyl)-N-(1-(1-((1-methyl-1H-pyrazol-4-yl)methyl)piperidin-4-yl)-3-(trifluoromethyl)-1H-pyrazol-4-yl)pyrimidin-2-amine] | < 10 nM
COC(=O)c1ccc(OC)c(Nc2ncc(-c3ccc(Cl)c(O[C@@H](C)Cn4cnnn4)c3)cn2)c1 [Example 526, methyl (S)-3-((5-(3-((1-(1H-tetrazol-1-yl)propan-2-yl)oxy)-4-chlorophenyl)pyrimidin-2-yl)amino)-4-methoxybenzoate] | 10 to 100 nM

Same assay, conditions: CaMKIIδ binding assay; activity class per Table 2

SMILES | IC50
C[C@@H](Cn1cnnn1)Oc1cc(-c2cnc(Nc3cn(C4CC5(C4)CN(C4CCOCC4)C5)nc3OCC(F)(F)F)nc2)ccc1C(F)F [Example 939, (S)-5-(3-((1-(1H-tetrazol-1-yl)propan-2-yl)oxy)-4-(difluoromethyl)phenyl)-N-(1-(2-(tetrahydro-2H-pyran-4-yl)-2-azaspiro[3.3]heptan-6-yl)-3-(2,2,2-trifluoroethoxy)-1H-pyrazol-4-yl)pyrimidin-2-amine] | < 10 nM

Same assay, conditions: Table 2; CaMKIIδ binding assay, activity given as class A/B/C

SMILES | IC50
C[C@@H](Cn1cnnn1)Oc1cc(-c2cnc(Nc3cn(C4CC5(C4)CN(C4COC4)C5)nc3OCC(F)(F)F)nc2)ccc1Cl [Example 854, (S)-5-(3-((1-(1H-tetrazol-1-yl)propan-2-yl)oxy)-4-chlorophenyl)-N-(1-(2-(oxetan-3-yl)-2-azaspiro[3.3]heptan-6-yl)-3-(2,2,2-trifluoroethoxy)-1H-pyrazol-4-yl)pyrimidin-2-amine] | < 10 nM
C[C@@H](Cn1cnnn1)Oc1cc(-c2cnc(Nc3cn([C@H]4CC[C@@H](N5CC(C)(O)C5)CC4)nc3OCC(F)(F)F)nc2)ccc1Cl [Example 801, 1-(cis-4-(4-((5-(3-(((S)-1-(1H-tetrazol-1-yl)propan-2-yl)oxy)-4-chlorophenyl)pyrimidin-2-yl)amino)-3-(2,2,2-trifluoroethoxy)-1H-pyrazol-1-yl)cyclohexyl)-3-methylazetidin-3-ol] | < 10 nM
C[C@@H](Cn1cnnn1)Oc1cc(-c2cnc(Nc3cn(CC4(CO)COC4)nc3C(F)(F)F)nc2)ccc1Cl [Example 732, (S)-(3-((4-((5-(3-((1-(1H-tetrazol-1-yl)propan-2-yl)oxy)-4-chlorophenyl)pyrimidin-2-yl)amino)-3-(trifluoromethyl)-1H-pyrazol-1-yl)methyl)oxetan-3-yl)methanol] | 10 to 100 nM
CCn1cc(Nc2ncc(-c3ccc(C#N)c(O[C@@H](C)Cn4cnnn4)c3)cn2)c(OCC(F)(F)F)n1 [Example 764, (S)-2-((1-(1H-tetrazol-1-yl)propan-2-yl)oxy)-4-(2-((1-ethyl-3-(2,2,2-trifluoroethoxy)-1H-pyrazol-4-yl)amino)pyrimidin-5-yl)benzonitrile] | < 10 nM
C[C@@H](Cn1cnnn1)Oc1cc(-c2cnc(Nc3cc(N4CCN(C5CCOCC5)CC4)ccc3OC(F)(F)F)nc2)ccc1Cl [Example 768, (S)-5-(3-((1-(1H-tetrazol-1-yl)propan-2-yl)oxy)-4-chlorophenyl)-N-(5-(4-(tetrahydro-2H-pyran-4-yl)piperazin-1-yl)-2-(trifluoromethoxy)phenyl)pyrimidin-2-amine] | < 10 nM
C[C@H](O)Cn1cc(Nc2ncc(-c3ccc(Cl)c(O[C@@H](C)Cn4cnnn4)c3)cn2)c(OCC(F)(F)F)n1 [Example 833, (S)-1-(4-((5-(3-(((S)-1-(1H-tetrazol-1-yl)propan-2-yl)oxy)-4-chlorophenyl)pyrimidin-2-yl)amino)-3-(2,2,2-trifluoroethoxy)-1H-pyrazol-1-yl)propan-2-ol] | < 10 nM
C[C@@H](Cn1cnnn1)Oc1cc(-c2cnc(Nc3cn([C@H]4C[C@@H](NC5CCOCC5)C4)nc3OCC(F)F)nc2)ccc1Cl [Example 850, (S)-5-(3-((1-(1H-tetrazol-1-yl)propan-2-yl)oxy)-4-chlorophenyl)-N-(3-(2,2-difluoroethoxy)-1-(cis-3-((tetrahydro-2H-pyran-4-yl)amino)cyclobutyl)-1H-pyrazol-4-yl)pyrimidin-2-amine] | < 10 nM
C[C@@H](Cn1cnnn1)Oc1cc(-c2cnc(Nc3cn(C4CCCCNC4=O)nc3OCC(F)(F)F)nc2)ccc1Cl (stereo partly drawn) [Example 777, 3-(4-((5-(3-(((S)-1-(1H-tetrazol-1-yl)propan-2-yl)oxy)-4-chlorophenyl)pyrimidin-2-yl)amino)-3-(2,2,2-trifluoroethoxy)-1H-pyrazol-1-yl)azepan-2-one] | < 10 nM
C[C@@H](Cn1cnnn1)Oc1cc(-c2cnc(Nc3cn(C4CCN(C5CCOCC5)CC4)nc3OCC(F)(F)F)nc2)ccc1C#N [Example 790, (S)-2-((1-(1H-tetrazol-1-yl)propan-2-yl)oxy)-4-(2-((1-(1-(tetrahydro-2H-pyran-4-yl)piperidin-4-yl)-3-(2,2,2-trifluoroethoxy)-1H-pyrazol-4-yl)amino)pyrimidin-5-yl)benzonitrile] | < 10 nM
CC(=O)NC(C)(C)Cn1cc(Nc2ncc(-c3ccc(Cl)c(O[C@@H](C)Cn4cnnn4)c3)cn2)c(C(F)(F)F)n1 [Example 862, (S)-N-(1-(4-((5-(3-((1-(1H-tetrazol-1-yl)propan-2-yl)oxy)-4-chlorophenyl)pyrimidin-2-yl)amino)-3-(trifluoromethyl)-1H-pyrazol-1-yl)-2-methylpropan-2-yl)acetamide] | 10 to 100 nM

Same assay, conditions: Table 2; activity class for CaMKIIδ

SMILES | IC50
C[C@@H](Cn1cnnn1)Oc1cc(-c2cnc(Nc3cn([C@@H]4C[C@H]5CC[C@@H](C4)N5C(=O)OC(C)(C)C)nc3C(F)(F)F)nc2)ccc1Cl [Example 701, tert-butyl (1R,3s,5S)-3-(4-((5-(3-(((S)-1-(1H-tetrazol-1-yl)propan-2-yl)oxy)-4-chlorophenyl)pyrimidin-2-yl)amino)-3-(trifluoromethyl)-1H-pyrazol-1-yl)-8-azabicyclo[3.2.1]octane-8-carboxylate] | ≥ 100 nM
C[C@@H](Cn1cnnn1)Oc1cc(-c2cnc(Nc3cn(C4Cc5ccccc5C4)nc3C(F)(F)F)nc2)ccc1Cl [Example 724, (S)-5-(3-((1-(1H-tetrazol-1-yl)propan-2-yl)oxy)-4-chlorophenyl)-N-(1-(2,3-dihydro-1H-inden-2-yl)-3-(trifluoromethyl)-1H-pyrazol-4-yl)pyrimidin-2-amine] | ≥ 100 nM
COc1nc(N2CCCN(C(=O)OC(C)(C)C)CC2)ccc1Nc1ncc(-c2ccc(Cl)c(O[C@@H](C)Cn3cnnn3)c2)cn1 [Example 665, tert-butyl (S)-4-(5-((5-(3-((1-(1H-tetrazol-1-yl)propan-2-yl)oxy)-4-chlorophenyl)pyrimidin-2-yl)amino)-6-methoxypyridin-2-yl)-1,4-diazepane-1-carboxylate] | ≥ 100 nM
COc1nn(C2CCN(C(=O)OC(C)(C)C)CC2)cc1Nc1ncc(-c2ccc(Cl)c(O[C@@H](C)Cn3cnnn3)c2)cn1 [Example 646, tert-butyl (S)-4-(4-((5-(3-((1-(1H-tetrazol-1-yl)propan-2-yl)oxy)-4-chlorophenyl)pyrimidin-2-yl)amino)-3-methoxy-1H-pyrazol-1-yl)piperidine-1-carboxylate] | 10 to 100 nM
CCn1cc(Nc2ncc(-c3ccc(Cl)c(O[C@@H](C)Cn4cnnn4)c3)cn2)c(N2CCCC2)n1 [Example 669, (S)-5-(3-((1-(1H-tetrazol-1-yl)propan-2-yl)oxy)-4-chlorophenyl)-N-(1-ethyl-3-(pyrrolidin-1-yl)-1H-pyrazol-4-yl)pyrimidin-2-amine] | 10 to 100 nM
CCn1cc(Nc2ncc(-c3ccc(Cl)c(O[C@@H](C)Cn4cnnn4)c3)cn2)c(C(F)(F)F)n1 [Example 674, (S)-5-(3-((1-(1H-tetrazol-1-yl)propan-2-yl)oxy)-4-chlorophenyl)-N-(1-ethyl-3-(trifluoromethyl)-1H-pyrazol-4-yl)pyrimidin-2-amine] | 10 to 100 nM
COc1cc2c(cc1Nc1ncc(-c3ccc(Cl)c(O[C@@H](C)Cn4cnnn4)c3)cn1)N(C(=O)C(F)(F)F)CCC2 [Example 586, (S)-1-(7-((5-(3-((1-(1H-tetrazol-1-yl)propan-2-yl)oxy)-4-chlorophenyl)pyrimidin-2-yl)amino)-6-methoxy-3,4-dihydroquinolin-1(2H)-yl)-2,2,2-trifluoroethan-1-one] | ≥ 100 nM
C[C@@H](Cn1cnnn1)Oc1cc(-c2cnc(Nc3cc(N4CC(N5CCOCC5)C4)ncc3OC(F)(F)F)nc2)ccc1Cl [Example 627, (S)-5-(3-((1-(1H-tetrazol-1-yl)propan-2-yl)oxy)-4-chlorophenyl)-N-(2-(3-morpholinoazetidin-1-yl)-5-(trifluoromethoxy)pyridin-4-yl)pyrimidin-2-amine] | 10 to 100 nM

— patent US10543212B2, “Substituted amines for treating cardiac diseases” (Cardurion Pharmaceuticals, LLC, priority 2017, dated 2020)
